Assay: Solubility of sitagliptin salts in water at 25° C.
Protocol: The solubility in water was measured using Crysta™ from Avantium Technologies.

Molecule	solubility in water (in words)	Solubility in water (25° C.)	solubility (25 °C, thermodynamic from solid)
N[C@@H](CC(=O)N1CCn2c(nnc2C(F)(F)F)C1)Cc1cc(F)c(F)cc1F.O=C[C@H](O)[C@@H](O)[C@H](O)[C@H](O)C(=O)O [D-Glucuronate, Sitagliptin D-Glucuronate]	very good	>500 mg/mL	–
N[C@@H](CC(=O)N1CCn2c(nnc2C(F)(F)F)C1)Cc1cc(F)c(F)cc1F [Dihydrogen phosphate, sitagliptin dihydrogen phosphate, reference compound]	–	–	100 to 120 mg/mL
Sitagliptin Oxalate	very good	–	–

— patent US20120077760A1, “NOVEL SALTS OF SITAGLIPTIN” (LEK Pharmaceuticals D.D., priority 2009, published 2012)
